pEC50, pKi: −log10 of the molar value.
Assays:
[1] = target: T1, Kappa-type opioid receptor (Homo sapiens, UniProt P41145); assay: Agonist activity at human kappa opioid receptor expressed in CHO-K1 cells assessed as inhibition of forskolin-stimulated cAMP accumulation by HitHunter assay based luminescence analysis; format: functional, cell-based
Mu-type opioid receptor [2] = target: T2, Mu-type opioid receptor (Homo sapiens, UniProt P35372); assay: Agonist activity at human mu opioid receptor expressed in CHO-K1 cells assessed as inhibition of forskolin-stimulated cAMP accumulation by HitHunter assay based luminescence analysis; format: functional, cell-based
T2 sequence (P35372 whole entry): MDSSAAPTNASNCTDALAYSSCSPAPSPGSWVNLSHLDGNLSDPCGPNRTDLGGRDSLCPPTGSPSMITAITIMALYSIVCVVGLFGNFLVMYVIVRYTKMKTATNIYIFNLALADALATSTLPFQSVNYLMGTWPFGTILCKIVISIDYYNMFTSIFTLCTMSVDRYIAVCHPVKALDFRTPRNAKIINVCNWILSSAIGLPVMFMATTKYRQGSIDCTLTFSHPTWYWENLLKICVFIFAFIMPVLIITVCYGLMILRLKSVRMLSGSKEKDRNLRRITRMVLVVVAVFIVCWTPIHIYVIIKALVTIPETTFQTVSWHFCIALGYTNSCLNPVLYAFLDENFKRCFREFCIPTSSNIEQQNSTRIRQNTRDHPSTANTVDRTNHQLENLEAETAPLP

Mu-type opioid receptor [3] = target: T2, Mu-type opioid receptor; assay: Displacement of [3H]DAMGO from mu opioid receptor (unknown origin) expressed in CHO cell membrane by competitive radioligand binding assay; format: cell membranes
[4] = target: T1, Kappa-type opioid receptor; assay: Binding affinity to kappa opioid receptor (unknown origin) by radioligand displacement assay
[5] = target: 5-hydroxytryptamine receptor 2B (Homo sapiens, UniProt P41595); assay: Binding affinity to 5HT2B receptor (unknown origin) by radioligand displacement assay
Chain of 5-hydroxytryptamine receptor 2B (P41595 whole entry): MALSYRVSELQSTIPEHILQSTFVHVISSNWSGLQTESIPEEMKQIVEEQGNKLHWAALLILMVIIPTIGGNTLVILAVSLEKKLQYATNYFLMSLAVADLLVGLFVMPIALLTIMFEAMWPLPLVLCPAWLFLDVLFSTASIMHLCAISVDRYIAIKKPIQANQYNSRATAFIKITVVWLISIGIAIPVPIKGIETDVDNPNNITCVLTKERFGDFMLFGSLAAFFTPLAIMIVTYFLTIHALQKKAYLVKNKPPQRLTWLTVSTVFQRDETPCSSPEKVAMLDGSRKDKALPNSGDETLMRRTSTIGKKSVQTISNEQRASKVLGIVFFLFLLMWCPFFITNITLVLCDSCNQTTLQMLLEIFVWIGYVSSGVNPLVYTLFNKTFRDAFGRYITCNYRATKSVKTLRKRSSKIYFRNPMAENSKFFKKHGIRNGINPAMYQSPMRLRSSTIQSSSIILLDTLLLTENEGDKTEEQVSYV

[6] = target: 5-hydroxytryptamine receptor 5A (Homo sapiens, UniProt P47898); assay: Binding affinity to 5HT5A receptor (unknown origin) by radioligand displacement assay
Chain of 5-hydroxytryptamine receptor 5A (P47898 whole entry): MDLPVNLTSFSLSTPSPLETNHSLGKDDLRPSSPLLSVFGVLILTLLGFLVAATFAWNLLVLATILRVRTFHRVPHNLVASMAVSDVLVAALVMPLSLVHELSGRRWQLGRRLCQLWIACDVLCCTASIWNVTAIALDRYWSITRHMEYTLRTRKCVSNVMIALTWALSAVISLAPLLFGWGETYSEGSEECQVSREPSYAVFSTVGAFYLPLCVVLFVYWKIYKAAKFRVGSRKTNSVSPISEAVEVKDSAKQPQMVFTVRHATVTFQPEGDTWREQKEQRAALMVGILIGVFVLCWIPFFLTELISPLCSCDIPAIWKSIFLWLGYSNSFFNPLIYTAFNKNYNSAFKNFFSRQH

[7] = target: 5-hydroxytryptamine receptor 7 (Homo sapiens, UniProt P34969); assay: Binding affinity to 5HT7A receptor (unknown origin) by radioligand displacement assay
Chain of 5-hydroxytryptamine receptor 7 (P34969 whole entry): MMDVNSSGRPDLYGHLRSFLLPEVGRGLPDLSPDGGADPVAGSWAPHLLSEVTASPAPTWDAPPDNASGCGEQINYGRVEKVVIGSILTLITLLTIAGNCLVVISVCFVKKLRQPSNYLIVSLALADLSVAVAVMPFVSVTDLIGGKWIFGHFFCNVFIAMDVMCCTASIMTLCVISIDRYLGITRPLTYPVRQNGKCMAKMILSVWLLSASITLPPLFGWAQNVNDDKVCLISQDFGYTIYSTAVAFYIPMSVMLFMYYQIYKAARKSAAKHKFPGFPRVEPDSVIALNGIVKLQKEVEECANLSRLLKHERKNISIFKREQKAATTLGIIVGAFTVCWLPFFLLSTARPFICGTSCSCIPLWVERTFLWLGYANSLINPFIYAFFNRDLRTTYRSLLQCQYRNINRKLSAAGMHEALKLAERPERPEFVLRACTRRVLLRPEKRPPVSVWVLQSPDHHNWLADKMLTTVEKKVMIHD

[8] = target: T3, Alpha-1A adrenergic receptor (Homo sapiens, UniProt P35348); assay: Binding affinity to alpha1A adrenergic receptor (unknown origin) by radioligand displacement assay
T3 sequence (P35348 whole entry): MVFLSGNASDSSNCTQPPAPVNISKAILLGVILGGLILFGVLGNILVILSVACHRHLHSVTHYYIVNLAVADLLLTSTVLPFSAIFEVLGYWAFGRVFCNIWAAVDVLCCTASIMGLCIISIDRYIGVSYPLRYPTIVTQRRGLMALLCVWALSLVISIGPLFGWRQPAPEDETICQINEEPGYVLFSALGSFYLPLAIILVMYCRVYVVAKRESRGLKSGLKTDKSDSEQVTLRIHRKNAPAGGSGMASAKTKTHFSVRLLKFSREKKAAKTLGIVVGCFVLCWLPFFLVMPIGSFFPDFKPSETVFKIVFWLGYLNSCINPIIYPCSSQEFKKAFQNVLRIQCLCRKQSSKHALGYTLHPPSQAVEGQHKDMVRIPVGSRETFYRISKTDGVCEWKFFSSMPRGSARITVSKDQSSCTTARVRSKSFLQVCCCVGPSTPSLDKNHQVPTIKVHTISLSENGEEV

[9] = target: T4, Alpha-1B adrenergic receptor (Homo sapiens, UniProt P35368); assay: Binding affinity to alpha1B adrenergic receptor (unknown origin) by radioligand displacement assay
T4 sequence (P35368 whole entry): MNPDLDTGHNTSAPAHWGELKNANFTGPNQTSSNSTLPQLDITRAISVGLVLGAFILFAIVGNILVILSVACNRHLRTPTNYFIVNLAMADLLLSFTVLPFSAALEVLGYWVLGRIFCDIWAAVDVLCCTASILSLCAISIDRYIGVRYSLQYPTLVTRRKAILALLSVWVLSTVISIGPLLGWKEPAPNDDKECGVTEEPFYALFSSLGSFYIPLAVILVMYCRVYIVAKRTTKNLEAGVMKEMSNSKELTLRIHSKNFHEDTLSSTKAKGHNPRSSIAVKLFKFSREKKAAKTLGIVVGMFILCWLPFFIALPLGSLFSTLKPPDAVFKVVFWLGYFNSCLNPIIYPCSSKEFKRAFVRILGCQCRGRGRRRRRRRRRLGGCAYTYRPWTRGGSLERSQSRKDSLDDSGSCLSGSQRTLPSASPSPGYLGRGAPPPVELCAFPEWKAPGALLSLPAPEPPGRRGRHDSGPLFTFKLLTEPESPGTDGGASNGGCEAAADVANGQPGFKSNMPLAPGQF

[10] = target: T5, Alpha-1D adrenergic receptor (Homo sapiens, UniProt P25100); assay: Binding affinity to alpha1D adrenergic receptor (unknown origin) by radioligand displacement assay
T5 sequence (P25100 whole entry): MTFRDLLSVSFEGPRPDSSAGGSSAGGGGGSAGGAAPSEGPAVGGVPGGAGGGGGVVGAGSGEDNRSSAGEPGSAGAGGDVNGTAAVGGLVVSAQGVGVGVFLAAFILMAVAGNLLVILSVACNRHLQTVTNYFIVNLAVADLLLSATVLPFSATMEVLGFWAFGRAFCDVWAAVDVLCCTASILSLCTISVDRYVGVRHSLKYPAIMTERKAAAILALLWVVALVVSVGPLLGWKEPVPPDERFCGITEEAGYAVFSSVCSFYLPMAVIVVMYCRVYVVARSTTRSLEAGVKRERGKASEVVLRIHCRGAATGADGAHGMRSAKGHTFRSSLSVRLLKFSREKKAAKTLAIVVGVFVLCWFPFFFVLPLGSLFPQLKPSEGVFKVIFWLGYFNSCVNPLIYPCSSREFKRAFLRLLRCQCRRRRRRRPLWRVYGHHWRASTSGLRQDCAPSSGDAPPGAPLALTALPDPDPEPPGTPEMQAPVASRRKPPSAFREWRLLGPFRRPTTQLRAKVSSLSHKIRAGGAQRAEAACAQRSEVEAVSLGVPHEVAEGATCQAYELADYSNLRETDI

[11] = target: T6, Alpha-2C adrenergic receptor (Homo sapiens, UniProt P18825); assay: Binding affinity to alpha2C adrenergic receptor (unknown origin) by radioligand displacement assay
T6 sequence (P18825 whole entry): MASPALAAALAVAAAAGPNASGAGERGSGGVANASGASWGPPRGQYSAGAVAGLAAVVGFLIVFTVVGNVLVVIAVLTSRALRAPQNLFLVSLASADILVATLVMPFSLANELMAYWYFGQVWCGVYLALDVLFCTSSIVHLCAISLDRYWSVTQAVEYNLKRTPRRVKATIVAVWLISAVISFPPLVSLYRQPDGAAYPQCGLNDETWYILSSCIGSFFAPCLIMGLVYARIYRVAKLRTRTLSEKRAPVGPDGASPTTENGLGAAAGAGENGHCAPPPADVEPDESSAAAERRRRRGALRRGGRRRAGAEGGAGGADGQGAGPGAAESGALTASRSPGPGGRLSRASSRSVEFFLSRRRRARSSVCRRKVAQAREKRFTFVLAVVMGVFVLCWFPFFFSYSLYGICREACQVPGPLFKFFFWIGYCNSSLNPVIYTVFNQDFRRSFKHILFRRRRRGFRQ

[12] = Binding affinity to alpha7 […] receptor (unknown origin) by radioligand displacement assay; parameters: species or system Homo sapiens
[13] = target: Voltage-gated inwardly rectifying potassium channel KCNH2 (Homo sapiens, UniProt Q12809); assay: Binding affinity to hERG by radioligand displacement assay; format: toxicity
Chain of Voltage-gated inwardly rectifying potassium channel KCNH2 (Q12809 whole entry): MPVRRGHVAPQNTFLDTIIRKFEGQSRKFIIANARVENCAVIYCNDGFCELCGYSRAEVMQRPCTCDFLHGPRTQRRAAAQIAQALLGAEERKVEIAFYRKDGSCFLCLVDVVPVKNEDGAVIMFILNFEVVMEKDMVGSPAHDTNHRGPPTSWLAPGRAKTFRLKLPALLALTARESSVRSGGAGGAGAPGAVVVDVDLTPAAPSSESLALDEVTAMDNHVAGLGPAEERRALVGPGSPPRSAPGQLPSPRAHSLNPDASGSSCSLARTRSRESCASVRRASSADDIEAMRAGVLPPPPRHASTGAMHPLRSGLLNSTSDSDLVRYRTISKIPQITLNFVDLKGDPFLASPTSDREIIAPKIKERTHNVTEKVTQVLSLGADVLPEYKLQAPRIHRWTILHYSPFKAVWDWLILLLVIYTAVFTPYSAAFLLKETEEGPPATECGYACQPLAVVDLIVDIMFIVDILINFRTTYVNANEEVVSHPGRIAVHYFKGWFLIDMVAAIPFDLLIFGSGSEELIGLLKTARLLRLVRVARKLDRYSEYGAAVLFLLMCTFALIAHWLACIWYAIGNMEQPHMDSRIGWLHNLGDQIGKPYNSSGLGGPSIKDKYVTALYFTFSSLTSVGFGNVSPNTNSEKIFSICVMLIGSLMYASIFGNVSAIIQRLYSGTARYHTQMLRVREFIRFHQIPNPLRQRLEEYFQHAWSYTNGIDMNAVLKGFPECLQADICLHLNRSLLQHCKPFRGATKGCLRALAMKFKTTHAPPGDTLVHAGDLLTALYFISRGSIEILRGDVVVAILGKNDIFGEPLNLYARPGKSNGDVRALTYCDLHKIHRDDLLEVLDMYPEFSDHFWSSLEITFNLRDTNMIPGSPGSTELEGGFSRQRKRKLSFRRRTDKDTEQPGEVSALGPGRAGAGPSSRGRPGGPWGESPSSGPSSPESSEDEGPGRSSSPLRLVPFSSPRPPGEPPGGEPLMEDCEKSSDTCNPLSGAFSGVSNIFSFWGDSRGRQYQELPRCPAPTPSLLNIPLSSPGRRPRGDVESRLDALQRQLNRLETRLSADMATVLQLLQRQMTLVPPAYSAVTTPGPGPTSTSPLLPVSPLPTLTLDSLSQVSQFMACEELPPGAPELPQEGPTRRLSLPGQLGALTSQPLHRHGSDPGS

[14] = Binding affinity to Sigma2 opioid receptor (unknown origin) by radioligand displacement assay; parameters: species or system Homo sapiens

T1 sequence (P41145 whole entry): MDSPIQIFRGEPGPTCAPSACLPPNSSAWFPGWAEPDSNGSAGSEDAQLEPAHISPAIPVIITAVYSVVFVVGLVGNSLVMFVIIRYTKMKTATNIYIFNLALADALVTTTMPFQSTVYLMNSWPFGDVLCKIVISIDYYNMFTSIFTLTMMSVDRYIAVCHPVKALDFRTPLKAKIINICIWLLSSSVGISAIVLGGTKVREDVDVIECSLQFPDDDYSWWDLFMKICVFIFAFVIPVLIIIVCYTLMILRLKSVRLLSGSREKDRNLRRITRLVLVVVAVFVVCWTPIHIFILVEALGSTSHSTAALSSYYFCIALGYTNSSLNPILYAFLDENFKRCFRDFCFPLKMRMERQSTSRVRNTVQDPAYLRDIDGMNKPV

**Q.** Which results are given for `C/C=C1/CN2CC[C@]34C(=C(C(=O)OC)[C@H]1C[C@H]23)Nc1ccc(I)cc14`?
**A.** pEC50 [1]: 8.24; pEC50 (Mu-type opioid receptor [2]): 4.39; pKi (Mu-type opioid receptor [3]): 5.44; pKi [4]: 9.00; pKi [5]: 6.12; pKi [6]: 6.08; pKi [7]: 5.86; pKi [8]: 6.05; pKi [9]: 5.70; pKi [10]: 5.94; pKi [11]: 5.54; pKi [12]: 5.26; pKi [13]: 5.96; pKi [14]: 5.65
